Experiments:
Experiment in all cases: Test D pre-/postemergence controlled growth environment herbicide test
Format in all cases: in vivo
Conditions in all cases: scale 0 to 100
[1] = test system: chamomile (scentless chamomile, Matricaria inodora)
Procedure, shortened: (§1)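 Visual injury scored 0–100 (100 = complete control) against untreated controls, 14–21 d after treatment in a controlled growth environment. Compounds, formulated in non-phytotoxic solvent with surfactant, were applied preemergence to silt loam soil or postemergence to 1- to 4-leaf plants (2–18 cm) in peat-based medium.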

[2] = test system: deadnettle (henbit deadnettle, Lamium amplexicaule)
Procedure, shortened: as §1

[3] = test system: downy bromegrass (Bromus tectorum)
Procedure, shortened: as §1

[4] = test system: field poppy (Papaver rhoeas)
Procedure, shortened: as §1

[5] = test system: field violet (Viola arvensis)
Procedure, shortened: as §1

[6] = test system: foxtail, green (green foxtail, Setaria viridis)
Procedure, shortened: as §1

[7] = test system: galium (catchweed bedstraw, Galium aparine)
Procedure, shortened: as §1

[8] = test system: lambsquarters (Chenopodium album)
Procedure, shortened: as §1

[9] = test system: oilseed rape (Brassica napus)
Procedure, shortened: as §1

[10] = test system: radish, wild (wild radish, Raphanus raphanistrum)
Procedure, shortened: as §1

[11] = test system: wheat, winter (winter wheat, Triticum aestivum)
Procedure, shortened: as §1

Cc1cc(=O)n(-c2ccc(C(F)(F)F)cc2)nc1Cc1ccnc(C(F)(F)F)c1 [Compound 2, 5-methyl-2-[4-(trifluoromethyl)phenyl]-6-[[2-(trifluoromethyl)-4-pyridinyl]methyl]-3(2H)-pyridazinone]
Plant response rating ([1]; Postemergence, 31 g ai/ha): 30 | Plant response rating ([1]; Postemergence, 62 g ai/ha): 30 | Plant response rating ([1]; Postemergence, 125 g ai/ha): 30 | Plant response rating ([1]; Postemergence, 250 g ai/ha): 40 | Plant response rating ([1]; Postemergence, 500 g ai/ha): 60 | Plant response rating ([1]; Preemergence, 31 g ai/ha): 0 | Plant response rating ([1]; Preemergence, 62 g ai/ha): 0 | Plant response rating ([1]; Preemergence, 125 g ai/ha): 25 | Plant response rating ([1]; Preemergence, 250 g ai/ha): 50 | Plant response rating ([1]; Preemergence, 500 g ai/ha): 90 | Plant response rating ([2]; Postemergence, 31 g ai/ha): 40 | Plant response rating ([2]; Postemergence, 62 g ai/ha): 40 | Plant response rating ([2]; Postemergence, 125 g ai/ha): 70 | Plant response rating ([2]; Postemergence, 250 g ai/ha): 75 | Plant response rating ([2]; Postemergence, 500 g ai/ha): 90 | Plant response rating ([2]; Preemergence, 31 g ai/ha): 100 | Plant response rating ([2]; Preemergence, 62 g ai/ha): 100 | Plant response rating ([2]; Preemergence, 125 g ai/ha): 100 | Plant response rating ([2]; Preemergence, 250 g ai/ha): 100 | Plant response rating ([2]; Preemergence, 500 g ai/ha): 100 | Plant response rating ([3]; Postemergence, 31 g ai/ha): 10 | Plant response rating ([3]; Postemergence, 62 g ai/ha): 30 | Plant response rating ([3]; Postemergence, 125 g ai/ha): 30 | Plant response rating ([3]; Postemergence, 250 g ai/ha): 40 | Plant response rating ([3]; Postemergence, 500 g ai/ha): 45 | Plant response rating ([3]; Preemergence, 31 g ai/ha): 0 | Plant response rating ([3]; Preemergence, 62 g ai/ha): 0 | Plant response rating ([3]; Preemergence, 125 g ai/ha): 0 | Plant response rating ([3]; Preemergence, 250 g ai/ha): 20 | Plant response rating ([3]; Preemergence, 500 g ai/ha): 25 | Plant response rating ([4]; Postemergence, 31 g ai/ha): 25 | Plant response rating ([4]; Postemergence, 62 g ai/ha): 75 | Plant response rating ([4]; Postemergence, 125 g ai/ha): 100 | Plant response rating ([4]; Postemergence, 250 g ai/ha): 80 | Plant response rating ([4]; Postemergence, 500 g ai/ha): 100 | Plant response rating ([4]; Preemergence, 31 g ai/ha): 100 | Plant response rating ([4]; Preemergence, 62 g ai/ha): 100 | Plant response rating ([4]; Preemergence, 125 g ai/ha): 100 | Plant response rating ([4]; Preemergence, 250 g ai/ha): 100 | Plant response rating ([4]; Preemergence, 500 g ai/ha): 100 | Plant response rating ([5]; Postemergence, 31 g ai/ha): 50 | Plant response rating ([5]; Postemergence, 62 g ai/ha): 90 | Plant response rating ([5]; Postemergence, 125 g ai/ha): 100 | Plant response rating ([5]; Postemergence, 250 g ai/ha): 100 | Plant response rating ([5]; Postemergence, 500 g ai/ha): 100 | Plant response rating ([5]; Preemergence, 31 g ai/ha): 60 | Plant response rating ([5]; Preemergence, 62 g ai/ha): 80 | Plant response rating ([5]; Preemergence, 125 g ai/ha): 90 | Plant response rating ([5]; Preemergence, 250 g ai/ha): 100 | Plant response rating ([5]; Preemergence, 500 g ai/ha): 100 | Plant response rating ([6]; Postemergence, 31 g ai/ha): 0 | Plant response rating ([6]; Postemergence, 62 g ai/ha): 5 | Plant response rating ([6]; Postemergence, 125 g ai/ha): 40 | Plant response rating ([6]; Postemergence, 250 g ai/ha): 45 | Plant response rating ([6]; Postemergence, 500 g ai/ha): 75 | Plant response rating ([6]; Preemergence, 31 g ai/ha): 20 | Plant response rating ([6]; Preemergence, 125 g ai/ha): 85 | Plant response rating ([6]; Preemergence, 250 g ai/ha): 100 | Plant response rating ([6]; Preemergence, 500 g ai/ha): 100 | Plant response rating ([7]; Postemergence, 31 g ai/ha): 40 | Plant response rating ([7]; Postemergence, 62 g ai/ha): 40 | Plant response rating ([7]; Postemergence, 125 g ai/ha): 50 | Plant response rating ([7]; Postemergence, 250 g ai/ha): 75 | Plant response rating ([7]; Postemergence, 500 g ai/ha): 85 | Plant response rating ([7]; Preemergence, 31 g ai/ha): 0 | Plant response rating ([7]; Preemergence, 125 g ai/ha): 75 | Plant response rating ([7]; Preemergence, 250 g ai/ha): 100 | Plant response rating ([7]; Preemergence, 500 g ai/ha): 100 | Plant response rating ([8]; Postemergence, 31 g ai/ha): 20 | Plant response rating ([8]; Postemergence, 62 g ai/ha): 20 | Plant response rating ([8]; Postemergence, 125 g ai/ha): 40 | Plant response rating ([8]; Postemergence, 250 g ai/ha): 80 | Plant response rating ([8]; Postemergence, 500 g ai/ha): 90 | Plant response rating ([8]; Preemergence, 31 g ai/ha): 20 | Plant response rating ([8]; Preemergence, 62 g ai/ha): 75 | Plant response rating ([8]; Preemergence, 125 g ai/ha): 75 | Plant response rating ([8]; Preemergence, 250 g ai/ha): 90 | Plant response rating ([8]; Preemergence, 500 g ai/ha): 90 | Plant response rating ([9]; Postemergence, 31 g ai/ha): 60 | Plant response rating ([9]; Postemergence, 62 g ai/ha): 75 | Plant response rating ([9]; Postemergence, 125 g ai/ha): 80 | Plant response rating ([9]; Postemergence, 250 g ai/ha): 98 | Plant response rating ([9]; Postemergence, 500 g ai/ha): 100 | Plant response rating ([9]; Preemergence, 31 g ai/ha): 20 | Plant response rating ([9]; Preemergence, 62 g ai/ha): 20 | Plant response rating ([9]; Preemergence, 125 g ai/ha): 50 | Plant response rating ([9]; Preemergence, 250 g ai/ha): 95 | Plant response rating ([9]; Preemergence, 500 g ai/ha): 95 | Plant response rating ([10]; Postemergence, 31 g ai/ha): 20 | Plant response rating ([10]; Postemergence, 62 g ai/ha): 20 | Plant response rating ([10]; Postemergence, 125 g ai/ha): 90 | Plant response rating ([10]; Postemergence, 250 g ai/ha): 100 | Plant response rating ([10]; Postemergence, 500 g ai/ha): 100 | Plant response rating ([10]; Preemergence, 31 g ai/ha): 100 | Plant response rating ([10]; Preemergence, 62 g ai/ha): 100 | Plant response rating ([10]; Preemergence, 125 g ai/ha): 100 | Plant response rating ([10]; Preemergence, 250 g ai/ha): 100 | Plant response rating ([10]; Preemergence, 500 g ai/ha): 100 | Plant response rating ([11]; Postemergence, 31 g ai/ha): 10 | Plant response rating ([11]; Postemergence, 62 g ai/ha): 10 | Plant response rating ([11]; Postemergence, 125 g ai/ha): 15 | Plant response rating ([11]; Postemergence, 250 g ai/ha): 15 | Plant response rating ([11]; Postemergence, 500 g ai/ha): 20 | Plant response rating ([11]; Preemergence, 31 g ai/ha): 0 | Plant response rating ([11]; Preemergence, 62 g ai/ha): 0 | Plant response rating ([11]; Preemergence, 125 g ai/ha): 30 | Plant response rating ([11]; Preemergence, 250 g ai/ha): 40 | Plant response rating ([11]; Preemergence, 500 g ai/ha): 45
